Test results published in patent US5948792A, “Fluorine-containing 1,4-disubstituted piperidine derivatives” (Banyu Pharmaceutical Co., Ltd., priority 1996, dated 1999).

Columns and labels:
Muscarinic M2 receptor = target: T1, Muscarinic M2 receptor (Homo sapiens, UniProt P08172); assay: Inhibition of binding of [3H]-N-methylscopolamine to muscarinic M2 receptor; conditions: CHO cell membranes expressing cloned human receptor; 0.2 nM [3H]-N-methylscopolamine, pH 7.4, 2 hours, 25° C; read-out: Ki M2 (inhibitory effects on binding to muscarinic M2 receptor)
T1 construct: purchased Receptor Biology, Inc; host or cells: CHO cells (membranes)
T1 sequence (P08172 1-466): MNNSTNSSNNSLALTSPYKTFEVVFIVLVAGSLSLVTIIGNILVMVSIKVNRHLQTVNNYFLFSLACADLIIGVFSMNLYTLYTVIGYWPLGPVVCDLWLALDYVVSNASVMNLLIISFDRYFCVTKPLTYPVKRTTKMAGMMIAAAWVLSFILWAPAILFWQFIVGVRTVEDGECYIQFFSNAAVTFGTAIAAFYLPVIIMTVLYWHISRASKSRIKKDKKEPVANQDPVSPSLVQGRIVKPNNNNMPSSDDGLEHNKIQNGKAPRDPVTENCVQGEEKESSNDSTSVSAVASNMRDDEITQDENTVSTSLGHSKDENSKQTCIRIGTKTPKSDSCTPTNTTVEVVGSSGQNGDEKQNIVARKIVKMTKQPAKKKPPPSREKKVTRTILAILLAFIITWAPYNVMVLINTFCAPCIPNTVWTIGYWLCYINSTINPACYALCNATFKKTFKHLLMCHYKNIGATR
Experimental: Tests on Inhibition of Binding to Muscarinic Receptors
These tests were performed according to a modification of the method of Hargreaves et al. (Br. J. Pharmacol. 107: 494-501, 1992). Membranes from CHO cells expressing cloned human m1-m5 (Receptor Biology, Inc.) were incubated with 0.2 nM [^3 H]-N-methylscopolamine and each a compound of the present invention to be tested in 0.5 ml of 50 mM Tris-HCl-10 mM MgCl2 -1 mM EDTA (pH 7.4) for 2 hours at 25° C. Free and membrane-bound [^3 H]-N-methylscopolamine were separated by filtration over glass filters (UniFilter-GF/C; Packard Instruments Co., Inc.) using cell harvester (Filtermate™ 196; Packard Instruments Co., Inc.). Then the filter was washed four times with 1 ml of ice-cold Tris-HCl (pH 7.4) and dried at 50° C. After adding a scintillator (Microscinti 0; Packard Instruments Co., Inc.), the radioactivity was counted by a liquid scintillation counter (TopCount™; Packard Instruments Co., Inc.). Non-specific binding was measured in the presence of 1 μM N-methylscopolamine.

airway M3 receptor = target: T2, airway M3 receptor (Rattus norvegicus, UniProt P08483); assay: Antagonism to the airway M3 receptor in an isolated rat trachea (in vitro); format: cell-based; conditions: for Kb: isolated rat trachea, carbachol-induced contraction
T2 construct: the trachea was isolated; from tissue; host or cells: isolated trachea of male SD strain rat
Experimental: Tests for Antagonism to Muscarinic Receptors (in vitro)
2) Tests for Antagonism to the Airway M3 Receptor in an Isolated Rat Trachea
These tests were performed according to a conventional method. A male SD strain rat (weighing 300-500 g) was killed by exsanguination, and the trachea was isolated. Annular segments (2 mm wide) were cut out from the trachea and cut transversely at the anterior cartilage part to make open ring preparation. A preparation was suspended in a Magnus tube filled with 5 ml of Krebs-Henseleit solution (gassed with 95% O2 -5% CO2 and kept at 32° C.) with an initial tension of 1.0 g and a resting tension of 0.6 g. The tension of the preparation was recorded isometrically. After being equilibrated for an hour, the preparation was made to contract twice by treatment with 10^-4 M carbachol, and the second contraction induced by carbachol was used as the reference contraction. After the preparation was washed with fresh solution to be restored to the base line, a test compound was administered thereto (or no treatment was given). Ten minutes later, carbachol (10^-8 to 10^-3 M) was cumulatively administered in three-fold increasing doses to obtain a dose-response curve. The dose-response curve was plotted by expressing responses as percentages based on the reference contraction of the preparation as 100%. The antagonistic potency (K^B value) of the test compound was determined from the degree of shift of the dose-response curve obtained by treatment with the test compound.

Muscarinic M3 Receptor [1] = target: T3, Muscarinic M3 Receptor (Rattus norvegicus, UniProt P08483); assay: Bronchodilation in rats (i.v.), inhibition of acetylcholine-induced increase in airway resistance; format: in vivo; conditions: iv, 5 min, acetylcholine 50 μg/kg i.v. 5 minutes after test compound, read-out: Inhibition of Airway Contraction ED50 iv
T3 construct: male rats of the Sprague-Dawley strain; from tissue; host or cells: airways of living male Sprague-Dawley rats (in vivo)
Experimental: (§1) Tests for Antagonism Against Muscarinic M3 Receptor (in vivo)
1-A) Tests for Bronchodilation in Rats (i.v.).
Eight- to eleven-weeks-old male rats of the Sprague-Dawley strain, weighing 380-420 g, were anesthetized with urethane (750 mg/kg. i.p.) and α-chloralose (37.5 mg/kg, i.p.). The bronchus of each rat was intubated, and the right jugular vein was cannulated for drug administration. […] To evoke an increase in airway resistance, acetylcholine (50 μg/kg, i.v.) was administered to the animals. The acetylcholine-induced airway resistance increase was measured 5 minutes before and 5 minutes after administration of test compound, and the ratio of the airway resistance of the latter to the former was calculated. In controls, isotonic sodium chloride solution was used in place of the test compounds and otherwise identical procedures were repeated, the calculated ratio being set to be 100%.

Muscarinic M3 Receptor [2] = assay: Bronchodilation in dogs (p.o.), methacholine provocation test; format: in vivo, dog; conditions: beagle dogs, 1 mg/kg p.o., 4 hours after administration
Experimental: as §1
2) Tests for Bronchodilation in Dogs (p.o.)
Twelve- to twenty-four-months-old male beagle dogs (weighing 10-15 kg) were anesthetized with pentobarbital (30 mg/kg, i.v.) and intubated in their bronchus. Their airway sensitivity to inhaled methacholine were measured at least twice at two-weeks interval, and the dogs showing a reproducible methacholine reaction threshold values^1) ware selected. To those dogs whose methacholine reaction threshold value had been confirmed, the test compounds were orally administered (1 mg/kg). Four hours after the administration, the methacholine provocation test was conducted, and then the methacholine reaction threshold value^2) after administration of the test compound was obtained.
The bronchodilator activity of the test compound was determined following equation: [formula]
The methacholine provocation test was conducted using Astograph TCK-6100H Model (Chest). Methacholine chloride was used as bronchoconstritor, which was diluted with isotonic sodium chloride solution in 10-grade concentration levels starting from 40,000 μg/ml, as 20,000, 10,000, 5,000, 2,500, 1,250, 625, 312.5, 156 and 78 μg/ml. These methacholine aerosols were inhaled to the test animal each for 1 min, starting from the lowest concentration level, and respiration resistance was continuously recorded. The concentration level at which the respiration resistance reached twice the initial value was recorded as the methacholine threshold value.

T2 sequence (P08483 whole entry): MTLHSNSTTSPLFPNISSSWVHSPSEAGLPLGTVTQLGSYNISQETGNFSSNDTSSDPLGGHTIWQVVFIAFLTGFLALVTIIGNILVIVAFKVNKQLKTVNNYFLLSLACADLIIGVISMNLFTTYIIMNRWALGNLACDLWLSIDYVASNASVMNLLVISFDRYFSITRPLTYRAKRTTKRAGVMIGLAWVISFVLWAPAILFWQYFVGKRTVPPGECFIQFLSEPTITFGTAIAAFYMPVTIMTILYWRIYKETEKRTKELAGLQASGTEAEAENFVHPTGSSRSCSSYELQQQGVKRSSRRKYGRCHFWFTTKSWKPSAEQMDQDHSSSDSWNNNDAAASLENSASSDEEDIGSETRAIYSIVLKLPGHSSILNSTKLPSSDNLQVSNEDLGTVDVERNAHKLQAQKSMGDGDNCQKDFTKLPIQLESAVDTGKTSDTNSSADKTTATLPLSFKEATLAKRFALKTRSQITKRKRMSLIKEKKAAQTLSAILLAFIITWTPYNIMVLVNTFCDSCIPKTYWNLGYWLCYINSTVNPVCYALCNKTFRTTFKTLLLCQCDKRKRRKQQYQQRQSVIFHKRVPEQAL
T3 sequence (P08483 whole entry): as above

Row | Structure (SMILES) | Ki (Muscarinic M2 receptor) [nM] | Kb (airway M3 receptor) [nM] | M2/M3 (ratio of KB) (airway M3 receptor; selectivity ratio of KB values, right atrium M2 / trachea M3) | ED50 (Muscarinic M3 Receptor [1]) [mg/kg] | Methacholine Inhalation-inducing Test shift value (after 4 hrs.) (Muscarinic M3 Receptor [2])
1 | Cl.Cl.Nc1cccc(CN2CCC(NC(=O)[C@](O)(c3ccccc3)[C@@H]3CCC(F)(F)C3)CC2)n1 [Example 20, (2R)-N-[1-(6-aminopyridin-2-ylmethyl)piperidin-4-yl]-2-[(1R)-3,3-difluorocyclopentyl]-2-hydroxy-2-phenylacetamide dihydrochloride] | 550 | 1.6 | 630 | 0.04 | > 69
2 | O=C(NC1CCN(Cc2ccsc2)CC1)[C@](O)(c1ccccc1)[C@@H]1CCC(F)(F)C1 [Example 11, (2R)-N-[1-(3-thienylmethyl)piperidin-4-yl]-2-[(1R)-3,3-difluorocyclopentyl]-2-hydroxy-2-phenylacetamide] | 460 | 0.95 |  | 0.032 | 21
